A word on the IC50: it is the midpoint of a concentration-inhibition curve.

Read-outs that look alike come from different tables or passages of the source.

Here are results for 4 compounds from patent US10500286B2, “CCK2R-drug conjugates” (priority 2015, dated 2019).

The test system of series [1] is HEK-CCK2R tumor cells. In words: Antitumor activity in HEK-CCK2R tumor model. In kind it is in vivo, mice. The following applies: 2 μmol/kg. On the procedure:
(§1) Female Balb/c nu/nu mice were fed ad libitum with 2918 irradiated Teklad Global 18% Rodent Diet for the duration of the experiment. HEK-CCK2R tumor cells were inoculated subcutaneously at the right flank of each mouse. Mice were dosed through the lateral tail vein under sterile conditions in a volume of 200 μL of phosphate-buffered saline (PBS).
Growth of each s.c. tumor was followed by measuring the tumor two times per week. Tumors were measured in two perpendicular directions using Vernier calipers, and their volumes were calculated as 0.5×L×W^2, where L=measurement of longest axis in mm and W=measurement of axis perpendicular to L in mm.
Treatment with 2 μmol/kg of EC1947 (Sulfated CCK8-Tubulysin B SMDC), three times a week for two weeks produced maximal anti-tumor activity with 80% cures and 20% CR's. In comparison, EC1868 (CCK8-PEG3-Tubulysin B SMDC) and EC1873 (CCK8-PEG12-Tubulysin B SMDC) at the same dose and schedule produced 100% CR's and 80% CR's/20% PR's, respectively.

The test system of series [2] is HEK-CCK2R cells. In kind it is cell-based. Conditions: 2 h pulse at 37 C, chase up to 72 h, [3H]thymidine incorporation relative to untreated controls. On the procedure: (§2) CCK2R-positive HEK-CCK2R cells were seeded in 12-well Falcon plates and allowed to form nearly confluent monolayers overnight in RPMI/HIFCS. Each well then received increasing concentrations of CCK2R targeted conjugates (n=4). Cells were pulsed for 2 h at 37° C., rinsed with medium, and then chased in fresh medium up to 72 h. Spent medium was aspirated and replaced with medium containing [^3H]thymidine. Following a 2 h incubation, cells were washed with PBS and then treated with 5% trichloroacetic acid. The trichloroacetic acid was aspirated and cells were solubilized in 0.25 N sodium hydroxide. Each solubilized sample were transferred to scintillation vials containing Ecolume scintillation cocktail and counted in a liquid scintillation counter. Final results were expressed as the percentage of [^3H]thymidine incorporation relative to untreated controls and IC50 values calculated using GraphPad Prism software.

Series [3] can be described thus: Body weight of mice bearing subcutaneous HEK-CCK2R tumors during treatment. Conditions: 2 μmol/kg, TIW×2 weeks. In kind it is in vivo. On the procedure:
(▪) control; (▴) EC1873; (●) EC1868; (∘) EC1947.
as §1

Series [4] concerns HEK-CCK2R cells. In words: In vitro study of conjugates versus competitor, [3H]thymidine incorporation. In kind it is cell-based. As for the experimental part: as §2, with “(EC1812 or EC1868)+/−10 μM of CCK2R binding competitor (Re-EC1786 or Re-EC1825).” for “(n=4).”
On the technique in general: Uptake of a labelled nucleoside into DNA is a usual measure of proliferation.

Where [5] appears, read: three times a week for two weeks.

With `CCCC(=O)OCN(C(=O)[C@@H](NC(=O)[C@H]1CCCCN1C)C(C)CC)[C@H](C[C@@H](OC(C)=O)c1nc(C(=O)N[C@@H](Cc2ccc(O)cc2)C[C@H](C)C(=O)NNC(=O)OCCSSC[C@H](NC(=O)[C@H](CC(=O)O)NC(=O)[C@@H](N)CNC(C)=O)C(=O)NCCOCCOCCOCCOCCOCCOCCOCCOCCOCCOCCOCCOCCC(=O)N[C@@H](CC(=O)O)C(=O)N[C@@H](Cc2ccc(O)cc2)C(=O)N[C@@H](CCSC)C(=O)NCC(=O)N[C@@H](Cc2c[nH]c3ccccc23)C(=O)N[C@@H](CCSC)C(=O)N[C@@H](CC(=O)O)C(=O)N[C@@H](Cc2ccccc2)C(N)=O)cs1)C(C)C` (some centres unmarked) [EC1873], in series [1] (setting [5]), the “CR's” value is 80% and the “PR's” value turned out to be 20%. It took 2.8 nM to reach half-maximal inhibition in series [2] (IC50). Also, the weight loss result in series [3] is “do not induce weight loss”.

Take `CCCC(=O)OCN(C(=O)[C@@H](NC(=O)[C@H]1CCCCN1C)C(C)CC)[C@H](C[C@@H](OC(C)=O)c1nc(C(=O)N[C@@H](Cc2ccc(O)cc2)C[C@H](C)C(=O)NNC(=O)OCCSSC[C@H](NC(=O)[C@H](CCC(=O)NC[C@@H](O)[C@H](O)[C@@H](O)[C@@H](O)CO)NC(=O)[C@H](CCC(=O)O)NC(=O)[C@H](CCC(=O)NC[C@@H](O)[C@H](O)[C@@H](O)[C@@H](O)CO)NC(=O)[C@H](CCC(=O)O)NC(=O)CCCCCCCNC(=O)c2cccc(NC(=O)N[C@@H]3CN(C4CCCCC4)c4ccccc4N(CC(=O)C(C)(C)C)C3=O)c2)C(=O)O)cs1)C(C)C` (some centres unmarked) [EC1812]: the “cytotoxic activity on HEK-CCK2R, in words” value in series [4] was “relatively inactive”. The IC50 in series [4] (+ 10 μM competitor Re-EC1786, read-out: IC50 in presence of Re-EC1786) amounted to 262 nM; in series [4] (conjugate alone, read-out: IC50), 225 nM. The “competition of activity by excess Re-EC1786, in words” value in series [4] (excess Re-EC1786) is “not competeable”.

As for `CCCC(=O)OCN(C(=O)[C@@H](NC(=O)[C@H]1CCCCN1C)C(C)CC)[C@H](C[C@@H](OC(C)=O)c1nc(C(=O)N[C@@H](Cc2ccc(O)cc2)C[C@H](C)C(=O)NNC(=O)OCCSSC[C@H](NC(=O)[C@H](CC(=O)O)NC(=O)[C@@H](N)CNC(C)=O)C(=O)NCCOCCOCCOCCC(=O)N[C@@H](CC(=O)O)C(=O)N[C@@H](Cc2ccc(O)cc2)C(=O)N[C@@H](CCSC)C(=O)NCC(=O)N[C@@H](Cc2c[nH]c3ccccc23)C(=O)N[C@@H](CCSC)C(=O)N[C@@H](CC(=O)O)C(=O)N[C@@H](Cc2ccccc2)C(N)=O)cs1)C(C)C` (some centres unmarked) [EC1868], the “CR, number of animals, second figure of {PR, CR, cure}” value in series [1] (TIW×2 weeks, n=5) was 5. The “CR's” value in series [1] (setting [5]) was found to be 100%. Further, the “cytotoxic activity on HEK-CCK2R, in words” value in series [4] is recorded as “potent, competeable cytotoxic activity”. The same compound gave a concentration for half-maximal inhibition (IC50) in series [2] of 0.2 nM. Moreover, in series [3], the weight loss result is recorded as “do not induce weight loss”.

Turning to `CCCC(=O)OCN(C(=O)[C@@H](NC(=O)[C@H]1CCCCN1C)C(C)CC)[C@H](C[C@@H](OC(C)=O)c1nc(C(=O)N[C@@H](Cc2ccc(O)cc2)C[C@H](C)C(=O)NNC(=O)OCSSC[C@H](NC(=O)[C@H](CC(=O)O)NC(=O)[C@@H](N)CNC(C)=O)C(=O)NCCOCCOCCC(=O)N[C@@H](CC(=O)O)C(=O)N[C@@H](Cc2ccc(OS(=O)(=O)O)cc2)C(=O)N[C@@H](CCSC)C(=O)NCC(=O)N[C@@H](Cc2c[nH]c3ccccc23)C(=O)N[C@@H](CCSC)C(=O)N[C@@H](CC(=O)O)C(=O)N[C@@H](Cc2ccccc2)C(N)=O)cs1)C(C)C` (some centres unmarked) [EC1947], in series [1] (setting [5]), the “CR's” value is on record as 20% and the cures was 80%. In series [2], this compound had an IC50 of 0.9 nM. The weight loss entry in series [3] is “do not induce weight loss”.
